The values that follow come from US12410171B2, “Tropomyosin receptor kinase (TRK) degradation compounds and methods of use” (Cullgen (Shanghai), Inc., priority 2020, dated 2025).

The test system of test [1] is KM12 cells. Put plainly: KM12 cell viability (CellTiter-Glo). It is filed as cell-based. Particulars: Homo sapiens, 72 h; KM12 cell viability, CellTiter-Glo, three days treatment; read-out: IC50. The procedure, abridged: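 Three-day exposure of KM12 cells (5000/well, RPMI 1640 with 10% FBS, 37 °C, 5% CO2) to compound dilution series, 3-fold over 8 or 11 points (top 1000 nM in the 8-point format) or 2-fold over 12. CellTiter-Glo readout, with IC50 fitted by nonlinear least-squares regression.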
(Cellular ATP, detected with luciferase, serves as a proxy for viable cell number.)

The target in test [2] is T1, TPM3-TRKA fusion protein (Homo sapiens, UniProt P04629).
T1 construct: The resulted chimeric proteins always retain the kinase domain of TRK proteins; TPM3 (fusion partner, N-terminal part of tropomyosin alpha-3, P06753); endogenous in cells; host or cells: KM12 colon cancer cells; the other entry of the earlier key: TPM3 (P06753, Tropomyosin alpha-3 chain)
T1 sequence (P04629 with tags, fused parts or gaps): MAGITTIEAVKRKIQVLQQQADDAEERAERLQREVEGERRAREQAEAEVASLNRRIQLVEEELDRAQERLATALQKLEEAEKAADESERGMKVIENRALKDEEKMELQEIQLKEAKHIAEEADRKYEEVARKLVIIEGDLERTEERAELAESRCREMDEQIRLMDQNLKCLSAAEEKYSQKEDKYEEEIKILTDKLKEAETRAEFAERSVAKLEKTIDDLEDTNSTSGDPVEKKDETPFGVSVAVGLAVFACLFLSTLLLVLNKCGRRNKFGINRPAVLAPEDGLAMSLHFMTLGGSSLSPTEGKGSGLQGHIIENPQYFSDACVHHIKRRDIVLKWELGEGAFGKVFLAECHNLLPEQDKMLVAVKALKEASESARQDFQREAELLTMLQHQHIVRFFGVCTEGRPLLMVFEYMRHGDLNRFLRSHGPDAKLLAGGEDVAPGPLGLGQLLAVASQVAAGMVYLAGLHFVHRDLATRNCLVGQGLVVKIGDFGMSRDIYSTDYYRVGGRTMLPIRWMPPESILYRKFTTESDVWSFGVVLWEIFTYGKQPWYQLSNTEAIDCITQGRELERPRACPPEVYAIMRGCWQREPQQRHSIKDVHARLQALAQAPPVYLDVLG
Put plainly: TPM3-TRKA fusion protein levels in KM12 cells (Western blot). In kind it is cell-based. Particulars: 16 h; TPM3-TRKA degradation in KM12 cells at 10 nM compound, category of percentage degradation; read-out: Degradation (at 10 nM). The procedure, abridged:
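TPM3-TRKA levels were assessed by Western blot with chemiluminescent detection and band densitometry, after SDS-PAGE of BCA-normalized RIPA lysates. Before lysis, KM12 cells received DMSO, compounds or matched control compounds at concentrations including 0.1, 1, 10 and 100 nM and 0.4–30 nM. Exposures lasted 4 h, 8–16 h or 16 h.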
A general note: A western blot detects proteins with antibodies after separation by electrophoresis.

Test [3] has as its system KM12 subcutaneous xenograft tumors. In words: KM12 subcutaneous xenograft tumor growth. In kind it is in vivo, Athymic nude mice. As to conditions: 10-20 mg/kg qd or bid via oral gavage (FIG. 15A-15B). As to the method:
Athymic nude mice bearing KM12 subcutaneous xenograft tumors at the right flank were intraperitoneally treated with vehicle or 25 mg/kg CPD-060 once per day (qd), twice per day (bid), or once every two days (q2d). Tumor volumes were assessed every two days and expressed as length×width×width/2. Body weights of experimental mice were also measured to assess the toxicity of compounds.
Athymic nude mice bearing KM12 subcutaneous xenograft tumors at the right flank were treated with vehicle, 10-20 mg/kg TR-181 or TR-198 once per day (qd), or twice per day (bid) via oral gavage. Tumor volumes were assessed every two days and expressed as length×width×width/2. Body weights of experimental mice were also measured to assess the toxicity of compounds.
Mice bearing KM12 xenograft tumors were treated with vehicle, TR-231 or TR-275 orally at 40 mg/kg, twice per day for 14 days. Tumor sizes were measured every two days and presented as volume=(length×width×width)/2. […]
All animal experiments were performed under protocols approved by the Institutional Animal Care and Use Committee (IACUC) of Cullgen. […] Tumor volumes were calculated as […]. For tumor growth assays, tumor sizes and body weight of mice were measured every 2 days. For pharmacodynamic studies, the levels of TPM3-TPKA in xenograft tumors was determined following a single dose of drug administration. […]

The subject of test [4] is TRK-fusions. As to conditions: phase 2 results, cited from earlier work.

As usually defined, the IC50 is the concentration that inhibits the measured activity by half. Regarding `O=C1CCC(N2C(=O)c3ccc(NCCN4CCN(c5cccc(-c6cnc7ccc(N8CCC[C@@H]8c8cccc(F)c8)nn67)n5)CC4)cc3C2=O)C(=O)N1` (stereo partly drawn) [TR-181, 2-(2,6-dioxopiperidin-3-yl)-5-((2-(4-(6-(6-((R)-2˜ (3-fluorophenyl)pyrrolidin-1-yl)imidazo[1,2-b]pyridazin-3-yl)pyridin-2-yl)piperazin-1-yl)ethyl)amino) isoindoline-1,3-dione], the IC50 in test [1] was determined as 2.9 nM. Besides, in test [2], the percent degradation of TPM3-TRKA protein at 0.01 µM is above 80%. The “in vivo anti-tumor activity (tumor volume)” value in test [3] is listed as “significant in vivo anti-tumor activity”.
For `O=C1CCC(N2C(=O)c3ccc(N4CC(CN5CCN(c6cccc(-c7cnc8ccc(N9CCC[C@@H]9c9cccc(F)c9)nn78)n6)CC5)C4)cc3C2=O)C(=O)N1` (stereo partly drawn) [TR-198, 2-(2,6-dioxopiperidin-3-yl)-5-(3-((4-(6-(6-((R)-2-(3-fluorophenyl)pyrrolidin-1-yl)imidazo[1,2-b]pyridazin-3-yl)pyridin-2-yl)piperazin-1-yl)methyl)azetidin-1-yl)isoindoline-1,3-dione], the percent degradation of TPM3-TRKA protein at 0.01 µM in test [2] is above 80%. Also, the “in vivo anti-tumor activity (tumor volume)” value in test [3] was “significant in vivo anti-tumor activity”.
On to `O=C(Nc1cnn2ccc(N3CCC[C@@H]3c3cc(F)ccc3F)nc12)N1CC[C@H](O)C1` [larotrectinib], for which, in test [4] (at 1 year), the “patient remained progression-free at 1 year” value was 55%. Moreover, the “patients responded to the therapy” value in test [4] (patients with TRK-fusions) is recorded as 75%.
